# Where two headings read alike, the source gives them in different places.
# Columns and labels:
# [1] = system: JAK2; assay: JAK2 phosphorylation western blot assay; type: cell-based, human; settings: 10 microM, HEL or K562 cells (table does not say which)
# Experimental: (§1) The Human Erythroleukemia cell line HEL and the human Chronic Myeloid Leukemia cell line K562 were cultured in RPM I 1640 medium containing 10% fetal bovine serum (FBS) and 50 U/ml penicillin/50 U/ml streptomycin at 37° C. in a 5% CO2 humidified atmosphere to a density of 300.000 viable cells/mL in presence of WP1066 (positive control of phosphorylation inhibition) (Verstovsek et al., 2008) or CM-363 at concentrations of 1, 5 and 10 μM. Cell culture reagents were all obtained from BioWhittaker® (Lonza, Verniers, Belgium). Cell growth and viability was determined by propidium iodide (fluorescent dye) exclusion method using the Accuchip 4× Counting Kit and the ADAM automatic cell counter (Digital-Bio, NanoEntek, Ic., Washington St, Mass., USA).As a control of unspecific phosphorylation, some cells in each experiment were exposed to vehicle (negative control of phosphorylation inhibition) (0.1% DMSO).
# (§2) For total protein extraction, cells were scraped with RIPA 1× lysis buffer (25 mM Tris-HCl pH 7.6, 150 mM NaCl, 1% NP-40, 1% sodium deoxycholate, 0.1% SDS, no. 89900, Thermo Scientific, Rockford, Ill., USA) supplemented with 1× protease and 1× phosphatase inhibitor cocktails (100× Halt™ Protease Inhibitor Cocktail, no. 87786 and 100× Halt Phosphatase Inhibitor Cocktail, no. 78420, both from Thermo Scientific, Rockford, Ill., USA). An aliquot of each extract was preserved for protein quantification by bicinchoninic acid assay (Pierce® BCA Protein Assay Kit, no. 23225, Thermo Scientific, Rockford, Ill., USA).
# (§3) Proteins were solubilized in sample buffer containing 0.0625 M Tris-HCl, pH 6.8, 2.3% (wt/vol) SDS, 10% (vol/vol) glycerol, 5% (vol/vol) f3-mercaptoethanol, and 0.001% (wt/vol) bromophenol blue and boiled at 95° C. for 5 min. Equal amounts (50 μg) of each sample were electrophoresed on 8-10% sodium dodecyl sulfate-polyacrylamide gel electrophoresis (SDS-PAGE) and transferred to nitrocellulose membranes (iBlot® Gel Transfer Stacks, Nitrocellulose, no. IB4010-02, Invitrogen, Barcelona, Spain) as described previously (Fernandez, L, et al., Endocrinology, 13, 1815-1824, 1998; B. Guerra et al., J. Neurochem, 91, 99-109, 2004; B. Guerra et al., J. Appl. Physiol., 102, 1786-1792, 2007; B. Guerra et al., J. Appl. Physiol., 111, 715-725, 2011). The nitrocellulose membranes were then removed from the iBlot® Dry GelTransfer Device (no. IB1001EU, Invitrogen, Barcelona, Spain) and placed in a Ponceau S staining solution (0.5% Ponceau S and 1% glacial acetic acid in water) to verify equal loading of protein in the control and treated samples. After the membranes were stained for 5 min, they were rinsed for 2 min and examined. Equal loading of protein was verified, and the membranes were rinsed for an additional 10 min and immunoscreened. Membranes were blocked with 5% blotting grade blocker nonfat dry milk in Tris Buffered Saline with 0.05% Tween 20 (TBST; blotto-blocking buffer) for at least […]) at room temperature. They were washed thrice in TBS with 0.1% Tween 20 (TBST-0.1). Next, the membranes were incubated over night at 4° C. with the appropriate anti-phospho-antibodies (described below) all diluted (1:1000) in 1% bovine serum albumin (BSA)-1% blotto in TBST (BSA-blotto blocking buffer). […] Membranes were stripped of bound antibodies by incubation in stripping buffer (Restore™ Western Blot Stripping Buffer, no. 21059, Thermo Scientific, Rockford, Ill., USA) at room temperature for 30 min with agitation. Membranes were washed for 3×10 min in TBST-0.1, blocked with blotto-blocking buffer for at least 1 h and re-probed with the corresponding anti-total kinase antibodies (described below) all diluted (1:1000) in blotto-blocking buffer. […]
# [2] = system: STAT5 transcription (pSPI-GLE1-luc) in HEK-GHR cells; assay: HEK-GHR STAT5 transcription assay (luciferase reporter, rhGH stimulated); type: cell-based, human; settings: compound 45 minutes before 50 nM rhGH, six hours, read-out: Activity (IC50, reduction of luciferase activity)
# Source text: Plasmids: The full-length GHR was subcloned into pcDNA1/ampicillin (Invitrogen) as described previously (Ross R J, Esposito N, Shen X Y, et al., Mol Endocrinol 1997, 11:265-73). The pSPI-GLE1 (serine protease inhibitor 2.1 GAS-like element 1)-luc reporter construct was generated by subcloning the Stat5-binding element from serine protease inhibitor gene together with a minimal thymidine kinase promoter into the pGL2 plasmid (Promega), which contains the firefly luciferase cDNA (Wood T J, Sliva D, Lobie P E, et al. J Biol Chem 1995, 270:9448-53).
# Cell culture: HEK-GHR cell line was maintained in Dulbecco's Modified Eagle Medium (DMEM)/F12 supplemented with 10% fetal bovine serum (FBS) and 50 U/ml penicillin/50 U/ml streptomycin. The cells were maintained in a humidified incubator with 5% CO2 at 37° C. Cell culture reagents were obtained from PAA laboratories. The HEK-GHR cell line is a stable clone generated and kindly donated by Prof. Richard Ross (Clinical Sciences, Northern General Hospital, Sheffield, UK). Briefly, HEK-GHR cell line was generated in HEK 293 cells (human kidney embryonal cell line) by transfection with the calcium phosphate procedure of the GHR plasmid with pcDNA3/Neo (Invitrogen). Selection was made using G418 (400 ug/ml, Sigma) (Maamra M, Finidori J, Von Laue S, et al., J Biol Chem 1999, 274(21):14791-8).
# Luciferase reporter assay: Transcription assays were performed in HEK-GHR. The HEK-GHR cells were co-transfected with Stat5 luciferase (pSPI-GLE1-luc) reporter vector together with a plasmid constitutively expressing beta-galactosidase by using Metafectene Pro as described by the manufacturer (Biontex Laboratories GmbH, Munich, Germany). Following transfection, HEK-GHR cells were serum-starved for 20 h. Cells were then treated with vehicle (0.1% DMSO) or the indicated compound for 45 minutes prior to the addition of 50 nM recombinant human Growth Hormone (rhGH) (Norditropin, Novo Nordisk) to the medium. Six hours following rhGH addition, cells were harvested with Passive Lysis Buffer (Promega), and levels of luciferase were measured using Luciferase Assay System as described by the manufacturer (Promega). The Galacto-Light Plus System (Applied Biosystems) was used to measure beta-galactosidase activity.
# Statistical analysis. The concentration of drug that provokes 50% reduction of luciferase activity (IC50) was determined by using non-linear regression analysis and data were fitted to a log concentration vs normalized response curve in GraphPad software v5 (San Diego, Calif.).
# [3] = system: HEL cells; assay: HEL-based MTT cell viability assay; design: species or system human; settings: 48 h, read-out: Activity (IC50, reduction of cell viability)
# Experimental: Cell viability was assayed by measuring the mitochondrial reduction of the tetrazolium salt 3-(4,5-methyltiazol-2yl)-2,5diphenyl-tetrazolium bromide] (MTT) (Applichen; A2231,0010) (Mosmann T. J Immunol Methods. 1983 16; 65(1-2):55-63; Chuan Y-C et al 2010. Oncogene. 29 (10), 1531-1542. Cells were seeded in 96-well plates in medium supplemented with 10% FBS (Lonza Cat. No: 14-502F), 2 mM L-Glut (Lonza Cat. No: BE17-605E) and 100 U/ml PEST (Lonza Cat. No: DE17-605E) at a cell density of 5000-20000 cells/well. Cells were seeded at a density according to their exponential growth phase. Vehicle (0.05% DMSO) or drug were added to culture medium at the indicated concentrations (10 to 0.01 microM) during 48 h. Then, MTT (0.3 mg/ml) was added to cells following by incubation for 2-4 h at 37° C. in the dark. The medium was then discarded and the formazan precipitate was solubilized by addition of 20% SDS (Sigma; L-5750) in 0.02N HCl (Panreac; 131020.1611) for 12-16 h. The optical density was measured at 595 nm with the iMark Microplate Reader (BioRad, USA). Data was expressed as percent growth above the level in controls and the results in figures were plotted as means±SEM of each test point from 3 replicates.
# Statistical analysis. The concentration of drug that provokes 50% reduction of cell viability (IC50) was determined by using non-linear regression analysis and data were fitted to a log concentration vs normalized response curve in GraphPad software v5 (San Diego, Calif.).
# [4] = system: STAT5; assay: STAT5 phosphorylation western blot assay; type: cell-based, human; settings: 10 microM, HEL or K562 cells (table does not say which)
# Experimental: as §1, §2, §3
SMILES,Activity (inhibition of JAK2 phosphorylation) [1],IC50 [2],IC50 [3],Activity (inhibition of STAT5 phosphorylation) [4],IC50 ([2]; Homo sapiens),IC50 ([3]; Homo sapiens)
CC1(C)CC(=O)C2=C(C1)NC1=C(C(=O)c3ccccc3C1=O)C2c1cnc(Cl)nc1 (stereo not shown) [Compound 19],++ (++represents an inhibition at 10 microM > 50%),< 5000 nM,< 3000 nM,,,
O=C1CCCC2=C1C(c1ccccc1Cl)C1=C(N2)C(=O)c2ccccc2C1=O (stereo not shown) [Compound 22],++ (++represents an inhibition at 10 microM > 50%),< 5000 nM,< 3000 nM,+++ (+++represents an inhibition at 10 microM > 75%),,
CC1(C)CC(=O)C2=C(C1)OC1=C(C(=O)c3ccccc3C1=O)C2c1ccoc1 (stereo not shown) [Compound 21],+ (+represents an inhibition at 10 microM > 30%),< 1000 nM,< 3000 nM,++ (++represents an inhibition at 10 microM > 50%),,
CC1(C)CC(=O)C2=C(C1)NC1=C(C(=O)c3cn[nH]c3C1=O)C2c1ccccc1 (stereo not shown) [Compound 5],+ (+represents an inhibition at 10 microM > 30%),< 5000 nM,< 3000 nM,+ (+represents an inhibition at 10 microM > 50%),,
CC1(C)CC(=O)C2=C(C1)NC1=C(C(=O)c3ncncc3C1=O)C2c1ccccc1 (stereo not shown) [Compound 8],+++ (+++represents an inhibition at 10 microM > 75%),< 5000 nM,< 3000 nM,+ (+represents an inhibition at 10 microM > 50%),,
O=C1CCCC2=C1C(c1cccnc1)C1=C(N2)C(=O)c2ccccc2C1=O (stereo not shown) [Compound 17],+++ (+++represents an inhibition at 10 microM > 75%),< 5000 nM,< 3000 nM,+ (+represents an inhibition at 10 microM > 50%),,
O=C1CCCC2=C1C(c1ccc(Br)cc1)C1=C(O2)C(=O)c2ccccc2C1=O (stereo not shown) [Compound 10],++ (++represents an inhibition at 10 microM > 50%),< 1000 nM,< 3000 nM,+ (+represents an inhibition at 10 microM > 50%),,
CC1(C)CC(=O)C2=C(C1)OC1=C(C(=O)c3ccccc3C1=O)C2c1ccccn1 (stereo not shown) [Compound 12],++ (++represents an inhibition at 10 microM > 50%),< 1000 nM,< 3000 nM,++ (++represents an inhibition at 10 microM > 50%),,
"O=C1CCCC2=C1C(c1cccs1)C1=C(N2)C(=O)c2ccccc2C1=O (stereo not shown) [Compound 6, 12-(thiophen-2-yl)-3,4-dihydrobenzo[b]acridine-1,6,11(2H,5H,12H)-trione]",+ (+represents an inhibition at 10 microM > 30%),,,++ (++represents an inhibition at 10 microM > 50%),< 5000 nM,< 3000 nM
"O=C1CCCC2=C1C(c1ccccn1)C1=C(O2)C(=O)c2ccccc2C1=O (stereo not shown) [Compound 11, 12-(pyridin-2-yl)-3,4-dihydro-1H-benzo[b]xanthene-1,6,11(2H,12H)-trione]",,,,+ (+represents an inhibition at 10 microM > 50%),< 1000 nM,< 10000 nM
"CC1(C)CC(=O)C2=C(C1)OC1=C(C(=O)c3ccccc3C1=O)C2c1cccs1 (stereo not shown) [Compound 7, 3,3-dimethyl-12-(thiophen-2-yl)-3,4-dihydro-1H-benzo[b]xanthene-1,6,11(2H,12H)-trione]",+++ (+++represents an inhibition at 10 microM > 75%),,,+++ (+++represents an inhibition at 10 microM > 75%),< 1000 nM,< 10000 nM
"CC1(C)CC(=O)C2=C(C1)OC1=C(C(=O)c3ccccc3C1=O)C2c1ccco1 (stereo not shown) [Compound 20, 12-(furan-2-yl)-3,3-dimethyl-3,4-dihydro-1H-benzo[b]xanthene-1,6,11(2H,12H)-trione]",+++ (+++represents an inhibition at 10 microM > 75%),,,++ (++represents an inhibition at 10 microM > 50%),< 1000 nM,< 1000 nM
